The values that follow come from patent US9072734B2, “Quaternary ammonium salt compounds” (Teijin Pharma Limited, priority 2009, dated 2015).

Counter-ions that a name gives are not always drawn.

For test [1], the target named is T1, human M3 muscarinic receptor (Homo sapiens, UniProt P20309).
T1 construct: expressed in transfected cells; host or cells: CHO-K1
The experiment in a line: Inhibitory effect on methacholine-induced calcium influx, FLIPR assay, CHO-K1 cells stably expressing the human M3 muscarinic receptor. The settings on record: inhibition of calcium influx induced by methacholine. The test is classed as cell-based. An excerpt:
Muscarinic receptor subtypes (M1, M3 and M5 receptors), which couple to Gq proteins, activate the phospholipase C (PLC) pathway upon agonist binding to the receptor. As a result, the activated PLC hydrolyzes phosphatidyl inositol diphosphate (PIP2) to diacyl glycerol (DAG) and […] (IP3), which in turn generates calcium release from intracellular stores, i.e., endoplasmic and sarcoplasmic reticula. By utilizing FLIPR (Molecular Devices, Inc.) assay in which a calcium sensitive dye (Component A) is used that fluoresces when free calcium binds, the increase in intracellular calcium is measured on the basis of the change in the fluorescence intensity.
Methacholine was added to CHO-K1 cells stably expressing the human M3 muscarinic receptor to induce calcium influx and evaluate the inhibitory effect of test compounds. In the experiment, a FLIPR Calcium assay kit (Molecular Devices, Inc.) was used.
CHO-K1 cells stably expressing the human M3 muscarinic receptor suspended in Ham's F-12 media (Invitrogen, Co.) containing 10% fetal bovine serum (FBS) were seeded into 96-well FLIPR plates at a volume of 100 μL/well. Next day, 60 μL/well of Non-wash-dye solution (Hank's buffered salt solution, HBSS, containing 20 mM HEPES and 6.5 mM probenecid) was added to the cells, which were then incubated for an hour at 37° C. in the presence of 5% carbon dioxide. 20 μL of 10 concentrations of test compound solutions (HBSS containing 1% DMSO, 20 mM HEPES, 2.5 mM probenecid and 0.05% bovine serum albumin, BSA) prepared at concentrations in a range of 0.01-1000 nM with 2-fold serial dilution) were added, followed by incubation for 180 seconds. Then, 20 μL of 30 nM methacholine solution (HBSS containing 20 mM HEPES, 2.5 mM probenecid and 0.05% bovine serum albumin, BSA) was added, and fluorescence intensity was traced by the intracellular calcium influx measuring device FLIPR 96 (Molecular Devices, Inc.) for 170 seconds. The difference between the lowest and the highest values of the fluorescence intensity (FI) over the period of the measurement was used as a measured value. The percentages of inhibition by the test compounds were calculated according to the following formula from the measured value of the methacholin-added and test compound non-added sample (FIpositive), the measured value of the methacholin non-added and test compound non-added sample (FInegative), and the measured value of the methacholin-added and test compound-added sample (FItest). (%) Percentage of inhibition by test compound=[(1−(FItest−FInegative)/(FIpositive−FInegative)]×100
The 50% inhibitory concentrations (IC50 values) of test compounds were analyzed by a four-parameter logistic model using XLfit4 (IDBS, Ltd.) for the percentage of the inhibition by different concentrations of test compounds.

For test [2], the target named is T2, human β2 adrenergic receptor (Homo sapiens, UniProt P07550).
T2 construct: expressed in transfected cells; host or cells: CHO-K1
T2 sequence (P07550 whole entry): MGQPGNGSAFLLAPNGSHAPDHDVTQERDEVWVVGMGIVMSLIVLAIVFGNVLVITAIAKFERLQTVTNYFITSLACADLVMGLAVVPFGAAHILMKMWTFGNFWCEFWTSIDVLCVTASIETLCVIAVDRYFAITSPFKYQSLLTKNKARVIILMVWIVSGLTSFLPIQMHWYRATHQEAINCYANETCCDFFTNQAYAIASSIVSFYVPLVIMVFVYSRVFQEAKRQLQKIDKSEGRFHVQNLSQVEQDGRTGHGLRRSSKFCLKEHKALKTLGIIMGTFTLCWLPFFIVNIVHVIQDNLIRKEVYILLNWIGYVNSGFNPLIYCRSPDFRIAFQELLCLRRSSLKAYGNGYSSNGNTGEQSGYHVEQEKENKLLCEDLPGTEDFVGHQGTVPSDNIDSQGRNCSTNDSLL
As to the kind of experiment: Whole-cell cAMP Flashplate assay using CHO-K1 cells stably expressing human β2 adrenergic receptor. The settings on record: cAMP production. It counts as cell-based. As to the method:
The β2 adrenergic receptor, which couples to Gs proteins, activates adenylate cyclase upon agonist binding to the receptor. As a result, cAMP is produced in cells. The activation ability of the β2 adrenergic receptor can be measured by measuring the amount of the cAMP with cAMP-Screen System (Applied Biosystems).
CHO-K1 cells expressing the human β2 adrenergic receptor suspended in Ham's F-12 media containing 10% FBS were seeded into 96-well plates at a volume of 100 μL/well. Next day, they were washed with 200 μL PBS(−), to which 80 μL of 0.5 mM IBMX solution (Ham's F-12 media containing 0.05% BSA) was then added, followed by incubation for 20 minutes at 37° C. in the presence of 5% carbon dioxide. 20 μL of 9 concentrations of test compound solutions (0.5 mM IBMX solution containing 1% DMSO) prepared at concentrations in a range of 0.01-1000 nM with 2-fold serial dilution) were added, followed by incubation for 20 minutes at 37° C. in the presence of 5% carbon dioxide. Then, 100 μL of Assay/Lysis Buffer (a reagent that comes with cAMP Screen System) was added. The cells were lysed by pipetting, further incubated for 30 minutes at 37° C., and then frozen at −80° C. After several days, samples, thawed at room temperature, were treated according to the protocol of cAMP Screen System, and then chemiluminescence was measured by EnVision (PerkinElmer, Inc.). The amount of cAMP was calculated from the standard curve for the standard attached to cAMP Screen System.
The concentrations of a test compound at which 50% of its maximal effect is reached (EC50 values) were analyzed by a four-parameter logistic model using XLfit4 (IDBS, Ltd.) for the amounts of cAMP production at different concentrations of the test compounds.
(Cyclic AMP is a second messenger, typically raised through Gs and lowered through Gi signalling.)

T1 sequence (P20309 whole entry): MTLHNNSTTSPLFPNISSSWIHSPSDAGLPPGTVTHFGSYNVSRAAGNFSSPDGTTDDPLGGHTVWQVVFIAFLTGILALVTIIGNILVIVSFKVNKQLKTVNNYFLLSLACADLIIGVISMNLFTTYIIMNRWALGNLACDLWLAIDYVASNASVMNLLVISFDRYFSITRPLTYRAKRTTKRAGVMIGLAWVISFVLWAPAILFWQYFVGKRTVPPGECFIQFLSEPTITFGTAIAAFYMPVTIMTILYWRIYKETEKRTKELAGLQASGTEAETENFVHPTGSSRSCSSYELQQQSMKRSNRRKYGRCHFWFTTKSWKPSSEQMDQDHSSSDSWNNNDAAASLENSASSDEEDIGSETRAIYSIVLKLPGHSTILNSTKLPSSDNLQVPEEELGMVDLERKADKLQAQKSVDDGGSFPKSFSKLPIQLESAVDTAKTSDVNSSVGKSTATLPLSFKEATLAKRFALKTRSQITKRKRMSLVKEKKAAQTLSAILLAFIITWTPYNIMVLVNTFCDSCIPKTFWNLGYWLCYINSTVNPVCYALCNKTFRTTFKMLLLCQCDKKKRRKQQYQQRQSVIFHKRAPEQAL

The IC50 is the concentration that inhibits the measured activity by half. The term EC50 denotes the concentration giving half of the maximal effect. A lower EC50 goes with an effect from little substance. Turning to `COc1cc(NC(=O)CCc2ccc(-c3ccccc3)c(NC(=O)O[C@@H]3C[C@@H]4[C@H]5O[C@H]5[C@H](C3)[N+]4(C)C)c2)ccc1CNC[C@H](O)c1ccc(O)c2[nH]c(=O)ccc12` [Example 42, (1R,2R,4S,5S,7S)-7-({[5-(2-{[4-({[(2R)-2-hydroxy-2-(8-hydroxy-2-oxo-1,2-dihydroquinolin-5-yl)ethyl]amino}methyl)-3-methoxyphenyl]carbamoyl}ethyl)-2-phenylphenyl]carbamoyl}oxy)-9,9-dimethyl-3-oxa-9-azatricyclo[3.3.1.0^2,4]nonan-9-ium trifluoroacetate], in test [1], the IC50 worked out at 12.3 nM. Besides, the EC50 in test [2] was 0.8 nM.
Taken in the same sequence, the figures for `C[N+]1(C)CCC(OC(=O)Nc2cc(CCCC(=O)Nc3ccc(CNC[C@H](O)c4ccc(O)c5[nH]c(=O)ccc45)c(C(F)(F)F)c3)ccc2-c2ccccc2)CC1` [Example 31, 4-({[5-(3-{[4-({[(2R)-2-hydroxy-2-(8-hydroxy-2-oxo-1,2-dihydroquinolin-5-yl)ethyl]amino}methyl)-3-(trifluoromethyl)phenyl]carbamoyl}propyl)-2-phenylphenyl]carbamoyl}oxy)-1,1-dimethylpiperidin-1-ium trifluoroacetate] were 15.7 nM and 25.1 nM.
In the case of `C[N+]1(C)CCC(OC(=O)Nc2cc(CCNC(=O)c3ccc(CNC[C@H](O)c4ccc(O)c5[nH]c(=O)ccc45)cc3)ccc2-c2ccccc2)CC1` [Example 80, 4-({[5-(2-{[4-({[(2R)-2-hydroxy-2-(8-hydroxy-2-oxo-1,2-dihydroquinolin-5-yl)ethyl]amino}methyl)phenyl]formamide}ethyl)-2-phenylphenyl]carbamoyl}oxy)-1,1-dimethylpiperidin-1-ium trifluoro acetate], the IC50 in test [1] was 29.9 nM. The EC50 in test [2] turned out to be 2.4 nM.
The matching figures for `COc1cc(NC(=O)CCCc2ccc(-c3ccccc3)c(NC(=O)O[C@@H]3C[C@@H]4[C@H]5O[C@H]5[C@H](C3)[N+]4(C)C)c2)ccc1CNC[C@H](O)c1ccc(O)c2[nH]c(=O)ccc12` [Example 36, (1R,2R,4S,5S,7S)-7-({[5-(3-{[4-({[(2R)-2-hydroxy-2-(8-hydroxy-2-oxo-1,2-dihydroquinolin-5-yl)ethyl]amino}methyl)-3-methoxyphenyl]carbamoyl}propyl)-2-phenylphenyl]carbamoyl}oxy)-9,9-dimethyl-3-oxa-9-azatricyclo[3.3.1.0^2,4]nonan-9-ium trifluoroacetate]: 27.1 nM and 4.3 nM.
With `CCOc1cc(NC(=O)CCCc2ccc(-c3ccccc3)c(NC(=O)OC3CC[N+](C)(C)CC3)c2)c(Cl)cc1CNC[C@H](O)c1ccc(O)c2[nH]c(=O)ccc12` [Example 26, 4-({[5-(3-{[2-chloro-5-ethoxy-4-({[(2R)-2-hydroxy-2-(8-hydroxy-2-oxo-1,2-dihydroquinolin-5-yl)ethyl]amino}methyl)phenyl]carbamoyl}propyl)-2-phenylphenyl]carbamoyl}oxy)-1,1-dimethylpiperidin-1-ium trifluoroacetate], the IC50 in test [1] was determined as 23.2 nM. This compound also registered an EC50 in test [2] of 0.9 nM.
With `C[N+]1(C)CCC(OC(=O)Nc2cc(CCCC(=O)Nc3ccc(CNC[C@H](O)c4ccc(O)c5[nH]c(=O)ccc45)c(Cl)c3)ccc2-c2ccccc2)CC1` [Example 29, 4-({[5-(3-{[3-chloro-4-({[(2R)-2-hydroxy-2-(8-hydroxy-2-oxo-1,2-dihydroquinolin-5-yl)ethyl]amino}methyl)phenyl]carbamoyl}propyl)-2-phenylphenyl]carbamoyl}oxy)-1,1-dimethylpiperidin-1-ium trifluoroacetate], the 50% inhibitory concentration (IC50) in test [1] stood at 13.6 nM. In test [2], this compound came in with an EC50 of 4.8 nM.
`COc1cc(NC(=O)CCCc2ccc(-c3ccccc3)c(NC(=O)OC3C[C@H]4CC[C@H](C3)[N+]4(C)C)c2)c(Cl)cc1CNC[C@H](O)c1ccc(O)c2[nH]c(=O)ccc12` (stereo partly drawn) [Example 48, (1R,3R)-3-{[5-(3-{[2-chloro-4-({[(2R)-2-hydroxy-2-(8-hydroxy-2-oxo-1,2-dihydroquinolin-5-yl)ethyl]amino}methyl)-5-methoxyphenyl]carbamoyl}propyl)-2-phenylphenyl]carbamoyl}oxy)-8,8-dimethyl-8-azabicyclo[3.2.1]nonan-8-ium trifluoroacetate]: the IC50 in test [1] is 21.7 nM. In test [2], this compound yielded an EC50 of 0.4 nM.
The matching figures for `C[N+]1(C)CCC(OC(=O)Nc2ccc(CCC(=O)Nc3ccc(CNC[C@H](O)c4ccc(O)c5[nH]c(=O)ccc45)cc3)cc2-c2ccccc2)CC1` [Example 69, 4-({[4-(2-{[4-({[(2R)-2-hydroxy-2-(8-hydroxy-2-oxo-1,2-dihydroquinolin-5-yl)ethyl]amino}methyl)phenyl]carbamoyl}ethyl)-2-phenylphenyl]carbamoyl}oxy)-1,1-dimethylpiperidin-1-ium trifluoroacetate]: 44.7 nM and 16 nM.
As for `CCOc1cc(NC(=O)CCc2ccc(-c3ccccc3)c(NC(=O)OC3C[C@@H]4[C@H]5O[C@H]5[C@H](C3)[N+]4(C)C)c2)ccc1CNC[C@H](O)c1ccc(O)c2[nH]c(=O)ccc12` (stereo partly drawn) [Example 47, (1R,2R,4S,5S,7S)-7-({[5-(2-{[4-({[(2R)-2-hydroxy-2-(8-hydroxy-2-oxo-1,2-dihydroquinolin-5-yl)ethyl]amino}methyl)-3-ethoxyphenyl]carbamoyl}ethyl)-2-phenylphenyl]carbamoyl}oxy)-9,9-dimethyl-3-oxa-9-azatricyclo[3.3.1.0^2,4]nonan-9-ium trifluoroacetate], in test [1], the IC50 worked out at 16.5 nM. For the same compound, in test [2], the EC50 turned out to be 1.9 nM.
The matching figures for `C[N+]1(C)CCC(OC(=O)Nc2cc(CCCC(=O)Nc3ccc4cc(CNC[C@H](O)c5ccc(O)c6[nH]c(=O)ccc56)ccc4c3)ccc2-c2ccccc2)CC1` [Example 23, 4-({[5-(3-{[6-({[(2R)-2-hydroxy-2-(8-hydroxy-2-oxo-1,2-dihydroquinolin-5-yl)ethyl]amino}methyl)naphthalen-2-yl]carbamoyl}propyl)-2-phenylphenyl]carbamoyl}oxy)-1,1-dimethylpiperidin-1-ium trifluoroacetate]: 34.3 nM and 2.6 nM.
Taken in the same sequence, the figures for `C[N+]1(C)CCC(OC(=O)Nc2cc(OCCCCCCCCNC[C@H](O)c3ccc(O)c4[nH]c(=O)ccc34)ccc2-c2ccccc2)CC1` [Example 58, 4-[({5-[(8-{[(2R)-2-hydroxy-2-(8-hydroxy-2-oxo-1,2-dihydroquinolin-5-yl)ethyl]amino}octyl)oxy]-2-phenylphenyl}carbamoyl)oxy]-1,1-dimethylpiperidin-1-ium trifluoroacetate] were 46.4 nM and 0.6 nM.
In the case of `COc1cc(CNC[C@H](O)c2ccc(O)c3[nH]c(=O)ccc23)ccc1NC(=O)CCc1ccc(-c2ccccc2)c(NC(=O)OC2CC[N+](C)(C)CC2)c1` [Example 10, 4-({[5-(2-{[4-({[(2R)-2-hydroxy-2-(8-hydroxy-2-oxo-1,2-dihydroquinolin-5-yl)ethyl]amino}methyl)-2-methoxyphenyl]carbamoyl}ethyl)-2-phenylphenyl]carbamoyl}oxy)-1,1-dimethylpiperidin-1-ium trifluoroacetate], the IC50 in test [1] amounted to 10.5 nM. Moreover, the midpoint of the response in test [2], the EC50, lay at 3.9 nM.
